Laboratory results: the pKa sets of Baltruschat and Czodrowski (2020)
Where “and” joins values, the source holds several entries; their conditions need not be identical. Equal entries are not always repeated.

Details: acidic group

Point of comparison: `OC(O)c1ccncc1`, pKa 12.2. Against it:
- CC(C)(C)c1ccc2c(c1)C(=O)NC2=O — lower, 10.2
- Cc1ccc(OCC(=O)O)cc1 — lower, 3.15
- Cc1ccc(O)c(C(C)C)c1 — lower, 10.7
- Cc1n[nH]c(C)c1[N+](=O)[O-] — lower, 10.3
- Nc1nc(O)[nH+]c2nc[nH]c12 — lower, 4.51
- N#Cc1ccc(NS(=O)(=O)c2ccccc2)cc1 — lower, 6.78
- Nc1n[nH]c(N)c1/N=N/c1ccc(O)cc1 — lower, 7.81
- CC(=O)CC(=O)C(C)C — lower, 9.46
- CC(C)COc1ccc(C(=O)O)cc1 — lower, 4.48
- Oc1cccc2c1-c1ccccc1-2 — lower, 8.64
- O=c1cc(-c2ccc(O)cc2)ss1 — lower, 8.27
- COCC1=C(C(=O)O)CC1 — lower, 4.31
- O=C1CCON1 — lower, 6.7
- Cc1ccc(NN=C(C#N)C#N)c([N+](=O)[O-])c1 — lower, 6
- Cc1cnc(C)c(O)c1C=O — lower, 8.08
- OCCN1CCN(CCO)CC1 — lower, 7.75
- Cc1cccc(C(O)C(C(=O)O)c2ccc(-c3ccccc3)cc2)c1 (stereo not given) — lower, 4.17
- S=C(Nc1ccc(Cl)cc1)c1cccc(Br)c1 — lower, 10.1
- C[n+]1cccc(C(=O)Cc2ccccc2)c1 — lower, 10.3
- C/C(=N/O)c1ccc(O)cc1O — lower, 8.35
- CCN(CC)c1nnn[nH]1 — lower, 6.33
- Cc1ccc(S(=O)(=O)NC(=O)OCc2ccccc2)cc1 — lower, 4.21
- CCCCCCCCCCCC(=O)O — lower, 4.89
- CC/C(=N/O)NO — lower, 10.7
- Cc1cccc(C(C)[N+](=O)[O-])c1 (stereo not given) — lower, 7.49
- CC(=O)c1ccc(S)cc1 — lower, 5.33
- O=c1[nH]c2ccccc2c(=O)o1 — lower, 8.25
- O=C(O)[C@H]1C[C@@H]1c1cccc(Cl)c1 — lower, 4.51
- O=C1/C(=N\O)C=C(S(=O)(=O)[O-])c2cn[nH]c21 — lower, 6.35
- Oc1ccc2cnc3ccccc3c2c1 — lower, 8.43
- [NH3+]c1ccc(CC(=O)O)cc1 — lower, 3.49
- Oc1c(I)cc(Cl)c2cccnc12 — lower, 7.9
- C=C(C)C1=C(O)CC(C)CC1 (stereo not given) — lower, 11.9
- C[n+]1ccccc1S — lower, -1.42
- O=[N+]([O-])Nc1ccccc1 — lower, 4.74
- CC(=O)N[C@H]1CONC1=O — lower, 5.8
- CC/N=C(\N=[N+]=[N-])c1ccccc1O — lower, 9.4
- [NH3+]C1(C(=O)O)CCCCC1 — lower, 2.66
- C=C[C@@H]1CNC(=S)O1 — lower, 10.2
- CCNC(O)=S — lower, 0.92
- Oc1cccc2c1CCCC2 — lower, 10.5
- Oc1ccc2ccc3ccccc3c2c1 — lower, 9.28
- CCP(=O)(CC)CC=O — lower, 10.9
- N#CC(=C(O)O)c1ccccc1 — lower, 0.99
- C[n+]1cccc2c(S)cccc21 — lower, 3.22
- O=C(O)[C@@H]1CCC[NH2+]1 — lower, 1.94
- COc1ccc(NC(=S)c2ccc(Cl)cc2)cc1 — lower, 11.3
- O=S1(=O)C=C(O)c2ccccc21 — lower, 7.65
- CCCCCCCCC(=O)OO — lower, 8.23
- O=C(O)C(c1ccc(-c2ccccc2)cc1)C(O)Cc1ccccc1 (stereo not given) — lower, 4.29
- O=C(O)Cc1c[nH]c2ccccc12 — lower, 4.39
- NS(=O)(=O)C(F)(F)Cl — lower, 6.5
- COc1ccc2c(c1)CCC(=O)C2 — higher, 13.3
- COc1ccc(O)c(C[NH2+]C(CO)C(=O)O)c1 (stereo not given) — lower, 2.1
- O=C(NO)c1ccc([N+](=O)[O-])cc1 — lower, 8.02
- CCOC(=O)CC(C)=O — lower, 10.7
- Oc1cc[nH+]c2ccccc12 — lower, 2.27
- CCO/C([O-])=N/c1ncnc2nc[nH]c12 — the same, 12.2
- OC(O)c1ccccn1 — higher, 12.8
- O=C(O)/C=C\c1cccc([N+](=O)[O-])c1 — lower, 3.63
- C/C(O)=C/C(N)=O — lower, 9.46
- O=C(O)CCC(=O)c1cccc2ccccc12 — lower, 4.48
- CCC1(c2ccccc2)C(=O)NC(=S)N(C)C1=O (stereo not given) — lower, 7.65
- O=C1COC(=O)C1Br (stereo not given) — lower, 2.23
- COc1ccc(O)c(CN(C)C)c1 — lower, 11.5
- CCNc1cc[nH+]c(S)n1 — lower, 3.1
- O=C(O)c1cc2cc(Cn3cc[nH+]c3)ccc2o1 — lower, 2.38
- O=C(CC(=O)c1ccccc1)Nc1ccccc1 — lower, 9.54
- O=C1C=CC(=NO)C=C1 — lower, 6.36
- C[Si](C)(C)O[Si](C)(C)CCCC(=O)O — lower, 5.03
- Nc1ccc(S(=O)(=O)Nc2cncnc2)cc1 — lower, 6.62
- C/C(N=O)=N\O — lower, 5.8
- O=C(O)c1cccc(Oc2ccccc2)c1 — lower, 3.95
- Cc1ccc(O)c(CO)c1 — lower, 10.2
- CC(/N=N/O)c1ccccc1 (stereo not given) — lower, 8.32
- C[NH+](C)CCc1ccccc1O — lower, 8.75
- c1ncc2[nH]cnc2n1 — lower, 8.92
- COc1ccc2[nH]c3c(C)nccc3c2c1 — higher, 14.6
- C=CC[NH+](C)CCCNC(=O)/C=N/O — lower, 8.48
- OC(CBr)(Oc1ccccc1)c1ccccc1 (stereo not given) — lower, 11.2
- Nc1ccc(S(=O)(=O)Nc2cccnc2)cc1 — lower, 7.89
- Cc1c(O)cccc1C(=O)O — lower, 3.83
- COc1ccc(-c2c(O)c2=O)cc1 — lower, 2.33
- Cc1cc(Nc2ccc([O-])cc2)cc(C)c1O — lower, 10.9
- COc1cc(S(C)=O)ccc1-c1nc2[nH]ncc2[nH]1 (stereo not given) — lower, 12
- Oc1cc[nH+]c(O)c1 — lower, 1.37
- CCOc1ccccc1C(=O)O — lower, 4.18
- [O-]N=C1/C(=N/O)CCC/C1=N\O — lower, 11.1
- CCCCCCCCc1c(-c2ccccc2)nn(-c2ccccc2)c1O — lower, 7.5
- C/C(O)=C/C(=O)[O-] — higher, 13.2
- [O-]/C(O)=C1\SCc2ccccc21 — higher, 12.8
- CC/C([N+](=O)[O-])=[N+](/[O-])O — lower, 4.1
- Nc1ccc(-c2ccc(/N=C/c3ccc(O)cc3)cc2)cc1 — lower, 9.5
- Cc1ccc(C(=O)O)cc1 — lower, 4.37
- Cc1ccc2c(c1O)-c1c-2ccc(C)c1O — lower, 8.04

In the case of `O/N=C1/CCCC(=N\O)/C1=N/O`, the pKa is reported as 8.21 and 8.12.

Same assay, conditions: basic group

Point of comparison: `c1ccc(Oc2ccccn2)cc1`, pKa 2.35. Against it:
- [O-]c1cc2nc(c1)COCCOCCSCCOCCOC2 — higher, 10.1
- Cc1n[nH]c(C)c1[N+](=O)[O-] — lower, -0.22
- CC(C)CNc1ccccc1 — higher, 4.84
- Nc1n[nH]c(N)c1/N=N/c1ccc(O)cc1 — higher, 3.48
- CC1(C)S[C@H]2C(C(=O)[O-])[NH+]=C(CCCC(N)C(=O)[O-])N2C1C(=O)[O-] (stereo not given in full) — higher, 7.6
- Cc1ccc(-c2ncc(-c3ccc(Br)cc3)o2)cc1 — lower, 0.87
- CCC(O)CN(CC)CC(C)O (stereo not given) — higher, 9.2
- COc1cccc(C(=N)c2ccccc2)c1 — higher, 6.59
- Cc1ccc(NN=C(C#N)C#N)c([N+](=O)[O-])c1 — lower, -0.78
- CNC(C)=S — lower, -1.9
- Cc1cnc(C)c(O)c1C=O — higher, 4.1
- CCN1CCCC=C1C — higher, 11.6
- C[NH+](C)C[C@@H]1[C@@H](N)[C@]2(C)CC[C@@H]1C2(C)C — higher, 7.5
- COCCCCNc1ccccc1 — higher, 4.6
- Nc1ncccc1C(=O)[O-] — higher, 6.59
- NS(=O)(=O)c1ccccc1C(=O)O — higher, 3.14
- NCC[n+]1cc(Br)c2ccccc2c1 — higher, 6.71
- CC(C)(C)[C@]1(O)CCN2C[C@H]3c4ccccc4CCc4cccc(c43)[C@@H]2C1 — higher, 7.15
- Nc1ccc2c([N+](=O)[O-])cccc2c1 — higher, 3.16
- CCNN — higher, 7.95
- C[NH+](C)CCNCCN — higher, 9.12
- CC/C(=N/O)NO — higher, 5.15
- [S-]CCNCCc1ccccc1 — higher, 10.3
- CC(C)[NH+]1CCC(NN)CC1 — higher, 5.75
- COc1cccc(/N=C/N(C)C)c1 — higher, 8.6
- O=C1[C@@H]2C[C@@H](CN3CCCC[C@@H]23)[C@H]2CCCCN12 — higher, 7.7
- CN(C)c1ccc[nH+]c1 — lower, -1.91
- Oc1ccc2cnc3ccccc3c2c1 — higher, 5.35
- CCCCNCc1ccc(C)cc1 — higher, 9.98
- O=C([O-])C1CCN1 (stereo not given) — higher, 9.54
- Oc1c(I)cc(Cl)c2cccnc12 — higher, 2.61
- CCOC(=O)c1cnc(N(C)C)s1 — higher, 2.77
- N/C(CC(N)c1ccccc1)=N\O (stereo not given) — higher, 8
- CCN(CC)CCCNc1ccnc2ccccc12 — higher, 10
- COc1cccc([O-])n1 — higher, 9.77
- c1ccc2c(c1)CNCCC[NH2+]Cc1ccccc1OCCCO2 — higher, 7.89
- COC(=O)c1cccc(N)c1 — higher, 3.55
- CCC(=O)c1ccccc1 — higher, 17.6
- CC(CC(C#N)(c1ccccc1)c1ccccc1)N1CCOCC1 (stereo not given) — higher, 6.1
- Nc1cc(N)c2ccccc2n1 — higher, 9.45
- CCN(CC1CO1)CC1CO1 (stereo not given) — higher, 6.91
- Nc1cc[nH+]c([O-])n1 — higher, 4.61
- c1nc2c(ccc3c4c(cnc32)CCCC4)c2c1CCCC2 — higher, 6.23
- OCCCNc1ccccc1 — higher, 4.53
- FC(F)(F)c1cc(-c2ccccc2)nnc1NCCN1CCOCC1 — higher, 6.75
- C[C@H]1[C@@H](N)[C@@H](C)[C@@H](N)[C@@H](C)[C@H]1N — higher, 7.83
- c1ccc(-c2ccc3ncc(C[NH+]4CCOCC4)n3n2)cc1 — higher, 2.91
- COc1ccc(O)c(CN(C)C)c1 — higher, 8.7
- NCCC(=O)[O-] — higher, 10.2
- Cc1nn(-c2ccccc2)c(C(=O)[O-])c1C(=O)[O-] — higher, 5.89
- C#CCNc1ccccc1 — higher, 3.06
- c1ccc(-c2ccc3nccn3n2)cc1 — higher, 4.71
- Nc1c2ccccc2nc2cccc([N+](=O)[O-])c12 — higher, 7.3
- N#Cc1cccc(N)c1 — higher, 2.83
- CCCCCCCCNCc1ccc(C)cc1 — higher, 9.47
- CSc1ccc(N)cc1I — higher, 3.44
- N#Cc1ccc2c(c1)CCN2 — higher, 2.8
- CNCC(=O)NC — higher, 8.28
- C#CC(C)(C)Nc1ccccc1 — higher, 4.26
- Nc1ccc(S(=O)(=O)Nc2cncnc2)cc1 — lower, 1.9
- NCc1cccnc1 — higher, 8.33
- CN1CC[NH2+]CC1 — higher, 5.05
- [NH3+]CCC(=O)N[C@@H](Cc1cnc[nH]1)C(=O)[O-] — higher, 6.74
- [O-]c1ncnc2[nH]cnc12 — higher, 8.71
- O=[N+]([O-])c1ccncc1 — lower, 1.86
- c1ncc2[nH]cnc2n1 — within 0.2 log units, 2.45
- COc1ccc2[nH]c3c(C)nccc3c2c1 — higher, 7.09
- Cn1ccnc1N=[N+]=[N-] — higher, 4.05
- Cc1cnc2c(ccc3c(C)ccnc32)c1C — higher, 5.99
- O=C(CCCN1CCC(O)(c2ccccc2)CC1)c1ccccc1 — higher, 8.4
- Nc1ccc(S(=O)(=O)Nc2cccnc2)cc1 — higher, 3
- Cc1ccccc1/C(=N\CCC[NH+](C)C)c1ccccc1-c1ccccc1 — higher, 4.67
- c1ccc(-c2ccc[nH+]c2)nc1 — lower, 1.52
- O=C(Cc1ccc2ccc3cccnc3c2n1)c1ccccc1 — higher, 4.4
- CC(=O)C(CCN1CCOCC1)(c1ccccc1)c1ccccc1 — higher, 6.83
- Cc1ccc2nc3c(c(N4CCOCC4)c2c1)CCC3 — higher, 7.18
- COc1cc(S(C)=O)ccc1-c1nc2[nH]ncc2[nH]1 (stereo not given) — higher, 3.8
- CCNC(C)C(=O)[O-] (stereo not given) — higher, 10.2
- NC(=O)/C=C(\O)c1ccccn1 — higher, 8.23
- N#CC(CCN1CCCCC1)(c1ccccc1)c1ccccc1 — higher, 8.07
- COC(=O)C(N)Cc1c[nH]cn1 (stereo not given) — higher, 7.35
- Nc1ccc(-c2ccc(/N=C/c3ccc(O)cc3)cc2)cc1 — higher, 6.86
